{"source": "BindingDB's records for doi:10.1021/acs.jmedchem.7b00901", "about": "(University of South Australia, 2018)", "biological_target": "Cyclin-dependent kinase inhibitor 1 (Homo sapiens, UniProt P38936)", "sequence (P38936 whole entry)": "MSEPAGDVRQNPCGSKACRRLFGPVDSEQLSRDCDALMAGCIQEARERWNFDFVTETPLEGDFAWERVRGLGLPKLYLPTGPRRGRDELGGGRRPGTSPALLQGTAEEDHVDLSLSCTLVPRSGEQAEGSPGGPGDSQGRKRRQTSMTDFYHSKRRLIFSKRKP", "assay": "Inhibition of p21 (unknown origin)-induced transcription in human HT1080 p21-9-CMV-GFP cells after 3 days by fluorescence assay"}
{"smiles": "N#Cc1ccc2ncnc(NCCc3ccccc3)c2c1", "values": [{"measurement": "IC50", "result": 640, "unit": "nM"}]}
